Assay results taken from paper PMC7443477 (British Journal of Pharmacology, 2020).

Assays:
Format in all cases: cell-based
[1] = biological target: LPA1 receptor (native, systemic sclerosis dermal fibroblasts) (Homo sapiens, UniProt Q92633); experiment: FLIPR calcium flux, primary SSc dermal fibroblasts; details: agonist; 0.3% fatty acid-free human serum albumin; Gi/Go coupled
[2] = biological target: LPA5 receptor (Homo sapiens, UniProt Q9H1C0); experiment: FLIPR calcium flux, CHO cells
[3] = biological target: T1, LPA3 receptor (Homo sapiens, UniProt Q9UBY5); experiment: FLIPR calcium flux, CHO cells
T1 sequence (Q9UBY5 1-353): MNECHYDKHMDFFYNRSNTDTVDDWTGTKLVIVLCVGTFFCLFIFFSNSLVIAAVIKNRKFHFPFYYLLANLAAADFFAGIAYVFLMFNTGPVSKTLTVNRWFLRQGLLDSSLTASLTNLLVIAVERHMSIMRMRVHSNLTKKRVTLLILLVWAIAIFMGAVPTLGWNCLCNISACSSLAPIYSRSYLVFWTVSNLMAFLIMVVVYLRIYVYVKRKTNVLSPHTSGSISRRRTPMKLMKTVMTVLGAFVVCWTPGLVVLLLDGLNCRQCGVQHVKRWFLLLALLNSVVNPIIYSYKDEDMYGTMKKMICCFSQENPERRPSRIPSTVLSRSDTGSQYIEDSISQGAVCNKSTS

[4] = biological target: LPA2 receptor (Homo sapiens, UniProt Q9HBW0); experiment: FLIPR calcium flux, CHO cells
Sequence of LPA2 receptor (Q9HBW0 whole entry): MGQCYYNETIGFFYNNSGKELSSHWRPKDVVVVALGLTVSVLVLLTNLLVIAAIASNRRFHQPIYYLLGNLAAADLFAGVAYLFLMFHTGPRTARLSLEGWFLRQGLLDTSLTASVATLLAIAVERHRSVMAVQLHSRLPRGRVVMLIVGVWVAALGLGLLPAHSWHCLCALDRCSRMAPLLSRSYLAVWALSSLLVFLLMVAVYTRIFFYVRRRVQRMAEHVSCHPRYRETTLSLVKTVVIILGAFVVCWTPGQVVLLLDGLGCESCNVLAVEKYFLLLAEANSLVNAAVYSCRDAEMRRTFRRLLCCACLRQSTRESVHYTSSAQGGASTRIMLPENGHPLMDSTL

Sequence of LPA5 receptor (Q9H1C0 whole entry): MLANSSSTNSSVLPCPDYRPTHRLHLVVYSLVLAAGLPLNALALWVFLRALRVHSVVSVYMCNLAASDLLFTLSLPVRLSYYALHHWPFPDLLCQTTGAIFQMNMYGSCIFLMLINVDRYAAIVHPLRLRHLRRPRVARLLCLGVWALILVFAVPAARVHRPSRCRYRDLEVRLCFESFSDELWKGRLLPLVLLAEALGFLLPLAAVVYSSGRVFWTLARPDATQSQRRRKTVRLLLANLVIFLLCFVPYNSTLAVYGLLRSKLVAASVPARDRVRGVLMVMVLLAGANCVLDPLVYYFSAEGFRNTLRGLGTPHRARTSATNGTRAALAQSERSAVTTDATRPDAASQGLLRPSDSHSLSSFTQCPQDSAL
Sequence of LPA1 receptor (native, systemic sclerosis dermal fibroblasts) (Q92633 whole entry): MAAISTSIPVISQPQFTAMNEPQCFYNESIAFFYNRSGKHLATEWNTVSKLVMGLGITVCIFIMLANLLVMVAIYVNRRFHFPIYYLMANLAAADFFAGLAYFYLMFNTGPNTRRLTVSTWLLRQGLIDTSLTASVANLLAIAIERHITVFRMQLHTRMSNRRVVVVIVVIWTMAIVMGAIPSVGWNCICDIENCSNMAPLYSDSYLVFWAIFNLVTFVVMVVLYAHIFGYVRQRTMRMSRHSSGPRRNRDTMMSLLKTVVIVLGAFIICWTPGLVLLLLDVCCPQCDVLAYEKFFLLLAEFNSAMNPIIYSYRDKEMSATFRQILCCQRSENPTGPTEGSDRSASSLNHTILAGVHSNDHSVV

Row | SMILES | EC50 [1] [µM] | IC50 [2] [µM] | IC50 [3] [µM] | IC50 [4] [µM]
1 | CCCCCCCC/C=C\CCCCCCCC(=O)OC[C@@H](O)COP(=O)(O)O [LPA 18:1] | 0.15 ± 0.05 |  |  | 
2 | COc1ccc(C(=O)NC2(C(=O)O)Cc3ccccc3C2)cc1OCCc1cccc(C)c1 [SAR100842, 2‐(4‐methoxy‐3‐(2‐m‐tolyl‐ethoxy)‐benzoylamino)‐indan‐2‐carboxylic acid] |  | > 10 | > 10 | > 10
